# Reference: patent US20210393621A1, “COMBINATION SEROTONIN SPECIFIC REUPTAKE INHIBITOR AND SEROTONIN 1A RECEPTOR PARTIAL AGONIST FOR REDUCING L-DOPA-INDUCED DYSKINESIA” (The Research Foundation for The State University of new York, priority 2018, published 2021)
# Where two headings read alike, the source gives them in different places.
# Columns and labels:
# [1] = system: 6-OHDA-lesioned hemi-parkinsonian rats; assay: Experiment 1: AIMs, established LID in L-DOPA-primed hemi-parkinsonian rats; assay type: in vivo, Sprague-Dawley rats
# [2] = system: 6-OHDA-lesioned hemi-parkinsonian rats; assay: Experiment 2: AIMs, LID development in L-DOPA-naive hemi-parkinsonian rats; assay type: in vivo, Sprague-Dawley rats; details: treatment naive rats; VZD 10 or 20 mg/kg + L-DOPA 6 mg/kg, 3 weeks; vs Vilazodone (0 mg/kg)+L-DOPA (6 mg/kg)
# Protocol: Baseline forepaw adjusting step (FAS) data was collected 3 weeks after sham or […] lesion surgery, but prior to LD exposure. Sham animals received daily VZD (0 mg/kg)+L-DOPA (0 mg/kg) and 6-OHDA-lesioned animals received daily VZD (0, 10 or 20 mg/kg; s.c.)+LD (6 mg/kg; s.c.). All VZD injections were administered 5 min prior to LD. (FIG. 2A) AIMs and (FIG. 2B) FAS were evaluated on days 1, 8, 15, and 22. AIMs values expressed are the median sum of axial, limb, and orolingual (ALO) behaviors. ALO AIMs were evaluated every 10 min for 3 h post-LD administration. Values are expressed as medians [±median absolute difference (M.A.D.)]. FAS were evaluated 60 min post LD and are expressed as the mean overall steps […] to lesion multiplied by 100.
# After recovery, FAS established baseline motor disability. 6-OHDA-lesioned animals were divided into 3 equally disabled groups. […] AIMs ([…]) and FAS (FIG. 2B) were measured on Days 1, 8, 15, and 22 of treatment.
# Beginning 10 min post-treatment, a trained and blinded observer assigned a severity score (0-4) to each of the ALO AIMs based on 1 min ratings every 10 min for 3 h: 0, not present; 1, present from 1-29 s; 2, present 30-59 s; 3, present all 60 s, but interruptible by a cylinder tap; 4, present 60 s and not interruptible by a cylinder tap.
# [3] = system: 6-OHDA-lesioned hemi-parkinsonian rats; assay: Experiment 2: forepaw adjusting steps (FAS); assay type: in vivo, Sprague-Dawley rats; details: Vilazodone 10 mg/kg + L-DOPA 6 mg/kg; by Day 15
# Protocol: […].). All VZD injections were administered 5 min prior to LD. […] AIMs values expressed are the median sum of axial, limb, and orolingual (ALO) behaviors. […] Values are expressed as medians [±median absolute difference (M.A.D.)]. […] Forepaw adjusting steps (FAS): The FAS test is a measure of forelimb akinesia performed according to previous protocols (Bishop et al., 2012; Chang et al., 1999). Data are presented as mean percent intact stepping where the sum of the total steps with the lesioned forepaw was divided by the total steps with the unlesioned forepaw multiplied by 100. Lower percent intact scores indicate greater forelimb akinesia. Prior to baseline, rats received 2 acclimation periods. On-treatment FAS was performed 60 min post-L-DOPA.
# [4] = system: L-DOPA-primed 6-OHDA-lesioned rats; assay: Experiment 3: AIMs with 5-HT1AR or 5-HT1BR antagonist before Vilazodone and L-DOPA; assay type: in vivo, Sprague-Dawley rats
# Protocol: In each study, the LD-primed rats received (FIG. 4A) the 5-HT1AR antagonist WAY100635 [WAY; 0 or 0.5 mg/kg, s.c.] or (FIG. 4B) the 5-HT1BR antagonist NAS [NAS; 0 or 0.3 mg/kg, s.c.]) 5 min prior to VZD (0 or 10 mg/kg, s.c.) injected 5 min prior to LD (6 mg/kg, s.c.) in a within-subjects counterbalanced design. ALO AIMs were evaluated and are shown for every 10 min for 3 h after LD administration.
# All 6-OHDA-lesioned rats (n=17) were tested on the FAS prior to treatment regimens to establish baseline motor performance. Three-weeks post-surgery, all rats were primed with L-DOPA (6 mg/kg, s.c.) for 14 days.
# [5] = target: norepinephrine transporter (NET) (Homo sapiens, UniProt P23975); details: read-out: Ki for NET (norepinephrine reuptake site); cited from earlier work
# norepinephrine transporter (NET), sequence (P23975 whole entry): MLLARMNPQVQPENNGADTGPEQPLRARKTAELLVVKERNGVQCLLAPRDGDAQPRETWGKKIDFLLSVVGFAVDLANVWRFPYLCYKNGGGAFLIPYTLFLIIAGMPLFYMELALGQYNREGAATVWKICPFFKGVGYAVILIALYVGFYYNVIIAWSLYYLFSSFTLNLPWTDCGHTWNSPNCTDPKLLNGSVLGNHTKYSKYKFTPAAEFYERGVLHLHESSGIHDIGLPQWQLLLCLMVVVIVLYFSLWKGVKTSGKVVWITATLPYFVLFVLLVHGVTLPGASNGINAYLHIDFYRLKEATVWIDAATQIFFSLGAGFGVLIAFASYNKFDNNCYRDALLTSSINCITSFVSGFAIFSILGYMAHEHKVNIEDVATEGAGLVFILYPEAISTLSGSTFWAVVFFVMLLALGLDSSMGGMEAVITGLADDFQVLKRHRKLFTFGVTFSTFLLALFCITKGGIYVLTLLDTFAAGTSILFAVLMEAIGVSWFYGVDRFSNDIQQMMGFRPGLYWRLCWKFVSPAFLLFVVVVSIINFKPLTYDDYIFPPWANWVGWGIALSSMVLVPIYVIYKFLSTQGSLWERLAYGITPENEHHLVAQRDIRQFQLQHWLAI
# [6] = system: extracellular 5-HT, dopamine and norepinephrine; details: cited from earlier work; for maximal increase of extracellular 5-HT: rats, acute systemic injection, measured 3 h after injection
# 5-HT1A receptor = target: T1, 5-HT1A receptor (Homo sapiens, UniProt P08908); parameters: expressed in transfected cells; host or cells: SF9 cells; details: 5-HT1A receptor expressed in SF9 cells; cited from earlier work
# T1 sequence (P08908 1-422): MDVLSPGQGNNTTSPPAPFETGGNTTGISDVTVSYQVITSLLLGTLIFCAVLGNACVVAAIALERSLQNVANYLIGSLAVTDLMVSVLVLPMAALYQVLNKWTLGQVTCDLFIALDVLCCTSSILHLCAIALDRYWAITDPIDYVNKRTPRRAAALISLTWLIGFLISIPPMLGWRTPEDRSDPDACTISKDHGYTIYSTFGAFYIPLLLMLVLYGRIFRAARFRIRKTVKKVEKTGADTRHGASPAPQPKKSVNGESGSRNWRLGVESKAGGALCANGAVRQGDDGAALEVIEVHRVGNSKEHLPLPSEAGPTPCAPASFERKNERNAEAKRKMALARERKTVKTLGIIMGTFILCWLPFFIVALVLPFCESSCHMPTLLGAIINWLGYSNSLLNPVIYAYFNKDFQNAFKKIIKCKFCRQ
# [7] = system: striatal and raphe tissue monoamines; assay: Experiment 1: HPLC of tissue monoamines and metabolites in striatum and dorsal raphe nucleus; details: for 5-HIAA / 5-HT / 5-HT Turnover / DA Turnover / DOPAC / DA: 60 min post-LD
# Protocol: Three-weeks post-lesion, animals were divided into 2 equally disabled groups, measured by forepaw adjusting steps (FAS, see below). One group (n=8) began receiving 14 days of daily vehicle (0.9% NaCl+0.1% ascorbic acid) and the other (n=22) received L-DOPA methyl ester (6 mg/kg, s.c.; Sigma)+DL-serine 2-(2,3,4-trihydroxybenzyl) hydrazine hydrochloride (benserazide; 15 mg/kg, s.c.; Sigma), hereafter L-DOPA, dissolved in vehicle at a volume of 1 mg/kg. Treatment persisted for 14 days to produce stable AIMs expression (Putterman et al., 2007; Conti et al., 2014). Thereafter, L-DOPA-treated animals with Axial, Limb, and Orolingual (ALO) AIMs (see description below, FIG. 1A)<30 were excluded from the study and the remaining L-DOPA-treated animals were divided into 3 equally dyskinetic groups. […] Daily injections continued over 23 days, with behavior assayed on Days 15, 22, 29, and 36. On Day 37, animals were killed 60 min post-treatment Left and right dorsal striata and DRN were dissected and flash frozen for HPLC analyses.
# High-performance liquid chromatography (HPLC): HPLC, a method for semi-automated catecholamine analysis with coulometric detection, was performed according to prior protocols (Bishop et al., 2009) to determine the tissue levels of monoamines, their metabolites, and monoamine turnover in the striatum and DRN. The limit of detection for DOPAC, DA, 5-hydroxyindoleacetic acid (5-HIAA) and 5-HT was 10^−10 M. Final oxidation current values were plotted on a standard curve from 10^−6 M to 10^−9 M and expressed as pg of monoamine or metabolite per mg of tissue unless otherwise specified.
# On the final treatment day, animals were sacrificed 60 min post-LD treatment and left and right striata and dorsal raphe nucleus (DRN) were collected for high performance liquid chromatography (HPLC) analysis. Values (means±standard mean error) are expressed as picograms of monoamine or metabolite per milligram wet tissue weight. Turnover estimates were determined by dividing a subjects metabolite value by its corresponding monoamine. Differences were assessed by a 2×4 (lesion×treatment) ANOVA, followed by Fisher's LSD post-hocs when appropriate. *p<0.01 vs lesion vs intact; +p<0.05 vs all; ^p<0.05 vs VZD (0)+LD (0); #p<0.05 vs VZD (0)+LD (6)
# [8] = Dorsal Raphe Nucleus, VZD(10) + LD(6) mg/kg
# [9] = Dorsal Raphe Nucleus, VZD(20) + LD(6) mg/kg
# [10] = Striatum, Intact, VZD(10) + LD(6) mg/kg
# [11] = Striatum, Intact, VZD(20) + LD(6) mg/kg
# [12] = Striatum, Lesion, VZD(10) + LD(6) mg/kg
# [13] = Striatum, Lesion, VZD(20) + LD(6) mg/kg
smiles,measurement,setting,value
"Cl.N#Cc1ccc2[nH]cc(CCCCN3CCN(c4ccc5oc(C(N)=O)cc5c4)CC3)c2c1 [Vilazodone, 5-{4-[4-(5-cyano-3-indolyl)-butyl]-1-piperazinyl}-benzofuran-2-carboxamide hydrochloride]","anti-LID efficacy, high versus low dose","[1]; 20 mg/kg vs 10 mg/kg, initially, dissipated after the first week",greater anti-LID efficacy than the lower dose
same,"ALO AIMs, established LID","[1]; VZD 10 or 20 mg/kg s.c. 5 min prior to L-DOPA 6 mg/kg, vs Vilazodone (0 mg/kg)+L-DOPA (6 mg/kg), from first day throughout treatment",dramatically reduced AIMs
same,"side effects, like 5-HT syndrome","[1]; chronic Vilazodone + L-DOPA in rats, any time point",weren't observed at any time point
same,reduction of development and expression of LID compared with Amantadine,[1]; validated rodent model,more effective than Amantadine
same,"ALO AIMs, development of LID",[2],significantly attenuated the development of LID
same,"FAS, pro-motor effects versus Vilazodone (0)+L-DOPA (6 mg/kg)",[3],significantly enhanced the pro-motor effects of L-DOPA
same,"ALO AIMs, 5-HT1BR study","[4]; NAS-181 0 or 3.0 mg/kg, then VZD 0 or 10 mg/kg, then L-DOPA 6 mg/kg, s.c.",significantly reduced ALO AIMs
same,"LID duration, time course",[4]; VZD 10 mg/kg + L-DOPA 6 mg/kg,little effect on LID duration
same,"peak dyskinesia, time course",[4]; VZD 10 mg/kg + L-DOPA 6 mg/kg,reduced peak dyskinesia
same,"summed ALO AIMs, 5-HT1AR study","[4]; WAY100635 0 or 0.5 mg/kg, then VZD 0 or 10 mg/kg, then L-DOPA 6 mg/kg, s.c.",significantly reduced ALO AIMs
same,Ki,[5],0.056 µM
same,maximal increase of extracellular 5-HT,[6]; frontal cortex,527%
same,extracellular dopamine and norepinephrine,"[6]; rat brain, vilazodone 1 and 10 mg/kg",caused no change
same,maximal increase of extracellular 5-HT,[6]; ventral hippocampus,558%
same,increase of [35S]GTPγS binding compared to vehicle,5-HT1A receptor,fourfold
same,5-HIAA,[7]; [8],2541 ± 187^ picograms per milligram wet ti
same,5-HT,[7]; [8],7013 ± 462^^ picograms per milligram wet ti
same,5-HT Turnover,[7]; [8],0.37 ± 0.02
same,DA Turnover,[7]; [8],7.60 ± 0.78
same,DOPAC,[7]; [8],1175 ± 234 picograms per milligram wet ti
same,5-HIAA,[7]; [9],1985 ± 345^ picograms per milligram wet ti
same,5-HT,[7]; [9],5946 ± 776^ picograms per milligram wet ti
same,5-HT Turnover,[7]; [9],0.32 ± 0.03
same,DA,[7]; [9],128 ± 15.2 picograms per milligram wet ti
same,DA Turnover,[7]; [9],7.19 ± 1.12
same,DOPAC,[7]; [9],909 ± 186 picograms per milligram wet ti
same,5-HIAA,[7]; [10],470 ± 35.5 picograms per milligram wet ti
same,5-HT,[7]; [10],326 ± 24.3 picograms per milligram wet ti
same,5-HT Turnover,[7]; [10],1.45 ± 0.04
same,DA,[7]; [10],4827 ± 222 picograms per milligram wet ti
same,DA Turnover,[7]; [10],0.85 ± 0.05
same,DOPAC,[7]; [10],4138 ± 332^ picograms per milligram wet ti
same,5-HIAA,[7]; [11],422 ± 38.6 picograms per milligram wet ti
same,5-HT,[7]; [11],305 ± 33.5 picograms per milligram wet ti
same,5-HT Turnover,[7]; [11],1.41 ± 0.07
same,DA,[7]; [11],4560 ± 337 picograms per milligram wet ti
same,DA Turnover,[7]; [11],0.84 ± 0.03
same,DOPAC,[7]; [11],3839 ± 306 picograms per milligram wet ti
same,5-HIAA,[7]; [12],842 ± 78.8 picograms per milligram wet ti
same,5-HT,[7]; [12],261 ± 30.7 picograms per milligram wet ti
same,5-HT Turnover,[7]; [12],3.38 ± 0.31
same,DA,[7]; [12],128 ± 14.2 picograms per milligram wet ti
same,DA Turnover,[7]; [12],1.56 ± 0.18
same,5-HIAA,[7]; [13],596 ± 55.1+ picograms per milligram wet ti
same,5-HT,[7]; [13],223 ± 23.8 picograms per milligram wet ti
same,5-HT Turnover,[7]; [13],2.84 ± 0.33^
same,DA,[7]; [13],128 ± 26.2 picograms per milligram wet ti
same,DA Turnover,[7]; [13],1.50 ± 0.15
same,DOPAC,[7]; [13],190 ± 44.6 picograms per milligram wet ti
same,DRN 5-HT,[7]; Vilazodone 10 mg/kg + L-DOPA,significantly increased DRN 5-HT
same,striatal 5-HT Turnover,"[7]; Vilazodone 20 mg/kg, compared to Vilazodone (0 mg/kg)+L-DOPA (0 mg/kg)",reduced 5-HT Turnover
same,striatal 5-HIAA (printed 5-HIM),"[7]; Vilazodone 20 mg/kg, compared to all other treatments",attenuated 5-HIM
same,DRN DA Turnover,[7]; Vilazodone 10 or 20 mg/kg + L-DOPA,attenuated
same,DA in the lesioned striatum,"[7]; both doses (10, 20 mg/kg) + L-DOPA vs groups receiving Vilazodone vehicle",significantly increased DA
same,DRN 5-HT Turnover,[7]; both doses of Vilazodone + L-DOPA,attenuated 5-HT Turnover
